Ki and selectivity ratio data for 14 molecules are collected here from patent publication US7655657B2, “Fused bicycloheterocycle substituted quinuclidine derivatives” (Abbott Laboratories, priority 2003, dated 2010).

As usually defined, the Ki is the equilibrium dissociation constant of an inhibitor or competing ligand from its target.

Counter-ions that a name gives are not always drawn. Like-named read-outs stand apart in the source and are kept apart here. Bounds are passed on as bounds.

The target of one data set is hERG ion channel (Homo sapiens, UniProt Q12809). In words: [3H]-dofetilide binding to membranes from HERG-transfected HEK cells. The conditions noted are these: for selectivity ratio at 45 min: human, membrane preparations from HERG-transfected HEK cells, pH 7.4, probe [3H]-dofetilide.
Sequence of hERG ion channel (Q12809 whole entry): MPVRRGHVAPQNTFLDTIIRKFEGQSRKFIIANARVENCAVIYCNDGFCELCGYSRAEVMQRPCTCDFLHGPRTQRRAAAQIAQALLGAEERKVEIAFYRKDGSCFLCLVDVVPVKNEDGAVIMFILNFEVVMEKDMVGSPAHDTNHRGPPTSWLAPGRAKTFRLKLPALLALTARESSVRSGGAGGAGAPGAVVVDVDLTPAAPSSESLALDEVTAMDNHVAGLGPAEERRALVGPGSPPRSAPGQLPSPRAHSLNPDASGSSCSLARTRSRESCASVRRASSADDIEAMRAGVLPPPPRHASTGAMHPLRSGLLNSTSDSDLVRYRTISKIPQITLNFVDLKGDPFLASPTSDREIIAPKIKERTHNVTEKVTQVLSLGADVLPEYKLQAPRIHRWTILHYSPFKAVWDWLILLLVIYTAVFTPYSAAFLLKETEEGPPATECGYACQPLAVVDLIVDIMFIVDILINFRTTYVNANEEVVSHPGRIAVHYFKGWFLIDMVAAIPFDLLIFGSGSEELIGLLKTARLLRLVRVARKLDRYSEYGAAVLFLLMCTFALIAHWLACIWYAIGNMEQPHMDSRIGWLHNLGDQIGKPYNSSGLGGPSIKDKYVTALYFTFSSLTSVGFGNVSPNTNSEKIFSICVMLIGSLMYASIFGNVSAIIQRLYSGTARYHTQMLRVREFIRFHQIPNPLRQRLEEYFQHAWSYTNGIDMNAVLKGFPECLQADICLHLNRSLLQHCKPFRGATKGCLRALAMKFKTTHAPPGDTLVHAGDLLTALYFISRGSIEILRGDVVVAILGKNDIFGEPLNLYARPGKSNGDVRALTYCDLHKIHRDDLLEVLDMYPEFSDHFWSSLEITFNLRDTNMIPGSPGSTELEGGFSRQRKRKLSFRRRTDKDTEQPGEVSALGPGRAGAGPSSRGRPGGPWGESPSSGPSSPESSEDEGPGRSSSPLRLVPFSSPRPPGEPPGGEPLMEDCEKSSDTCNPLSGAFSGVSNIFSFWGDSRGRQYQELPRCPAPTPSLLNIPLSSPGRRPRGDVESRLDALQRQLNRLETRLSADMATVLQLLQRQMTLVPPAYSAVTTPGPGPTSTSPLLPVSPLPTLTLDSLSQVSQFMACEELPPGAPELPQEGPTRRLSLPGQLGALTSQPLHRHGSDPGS
In another data set the target is T1, α7 nAChRs (Rattus norvegicus, UniProt Q05941).
T1 construct: Membrane enriched fractions from rat brain minus cerebellum; tissue ABS Inc., Wilmington, Del; host or cells: rat brain minus cerebellum
T1 sequence (Q05941 23-502): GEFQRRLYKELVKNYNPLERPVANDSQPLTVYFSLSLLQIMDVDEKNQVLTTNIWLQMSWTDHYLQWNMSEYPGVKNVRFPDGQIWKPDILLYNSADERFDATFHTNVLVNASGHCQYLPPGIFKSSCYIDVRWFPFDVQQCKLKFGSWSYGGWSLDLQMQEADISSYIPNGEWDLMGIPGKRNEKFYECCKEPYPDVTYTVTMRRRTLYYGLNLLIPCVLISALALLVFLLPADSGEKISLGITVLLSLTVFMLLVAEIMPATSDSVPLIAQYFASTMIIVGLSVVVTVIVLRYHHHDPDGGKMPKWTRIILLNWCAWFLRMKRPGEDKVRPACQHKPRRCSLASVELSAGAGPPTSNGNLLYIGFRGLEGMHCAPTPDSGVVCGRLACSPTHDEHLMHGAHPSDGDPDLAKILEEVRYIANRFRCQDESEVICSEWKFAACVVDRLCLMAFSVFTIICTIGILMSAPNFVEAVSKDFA
In words: [3H]-methyllycaconitine (MLA) binding assay. How it is done: To determine the effectiveness of representative compounds of this invention as α7 nAChRs, the compounds of the invention were evaluated according to the [3H]-methyllycaconitine (MLA) binding assay and considering the [^3H]-cytisine binding assay, which were performed as described below.
[^3H]-Methyllycaconitine (MLA) Binding
Binding conditions were similar to those for [^3H]-cytisine binding. Membrane enriched fractions from rat brain minus cerebellum (ABS Inc., Wilmington, Del.) were slowly thawed at 4° C., washed and resuspended in 30 volumes of BSS-Tris buffer (120 mM NaCl, 5 mM KCl, 2 mM CaCl2, 2 mM MgCl2, and 50 mM Tris-Cl, pH 7.4, 22° C.). Samples containing 100-200 μg of protein, 5 nM [^3H]-MLA (25 Ci/mmol; Perkin Elmer/NEN Life Science Products, Boston, Mass.) and 0.1% bovine serum albumin (BSA, Millipore, Bedford, Mass.) were incubated in a final volume of 500 μL for 60 minutes at 22° C. Seven log-dilution concentrations of each compound were tested in duplicate. Non-specific binding was determined in the presence of 10 μM MLA. Bound radioactivity was isolated by vacuum filtration onto glass fiber filter plates prewetted with 2% BSA using a 96-well filtration apparatus (Packard Instruments, Meriden, Conn.) and were then rapidly rinsed with 2 mL of ice-cold BSS. Packard MicroScint-20® scintillation cocktail (40 μL) was added to each well and radioactivity was determined using a Packard TopCount® instrument. The IC50 values were determined by nonlinear regression in Microsoft Excel® software. Ki values were calculated from the IC50s using the Cheng-Prusoff equation, where Ki=IC50/1+[Ligand]/KD].

[1] abbreviates: rat brain minus cerebellum membranes, 5 nM [3H]-MLA, read-out: α7 binding [3H]MLA Ki.

Procedure for hERG ion channel: Membrane aliquots were thawed and homogenized again in a glass Dounce homogenizer (approximately 10 passes). Test compounds were diluted (6 concentrations at half-log intervals) from DMSO stock solutions in assay buffer (135 mM NaCl, 5 mM KCl, 0.8 mM MgCl2, 10 mM HEPES, 10 mM glucose, 1 mM EGTA, 0.01% BSA, pH 7.4), and tested in duplicate at each concentration. The following were added to each 200 μl well of a 96-well polystyrene plate (Packard Optiplate, cat. # 6005290): 20 μl of assay binding buffer (for total bounds), or 1 μM astemizole (for non-specific bounds), or test compound, 50 μl of [^3H]-dofetilide, and 130 μl of membrane homogenate (final protein concentration=30 μg per well). The plates were incubated at room temperature for 45 m, aspirated onto GF/B filter plates, and washed with 2 ml of cold wash buffer. The radioactivity was counted in a Packard Topcount Scintillation Counter after addition of 50 μl of scintillant (Packard Microscint-20, cat. # 6013621). The data were analyzed with a four-parameter logistic equation (PRISM™, Graphpad or Assay Explorer™, MDL). Ki values were derived by means of the Cheng and Prusoff (1973) equation (Ki=IC50/1+[ligand]/Kd) using Kd values for [^3H]-dofetilide obtained from previously performed saturation assays (Diaz et al., 2004). […] Each Ki represents an average of at least two independent determinations.
Thus, binding affinities to the hERG channel were expressed in Ki value, i.e. Ki hERG.

In the case of `c1cc2cc(-c3ccc(O[C@H]4CN5CCC4CC5)nn3)ccc2o1` [B, (R)-3-[6-(Benzofuran-5-yl)-pyridazin-3-yloxy]-1-aza-bicyclo[2.2.2]octane trifluoroacetate, reference compound], at hERG ion channel, the affinity corresponds to a Ki of 4090 nM and the selectivity ratio at 45 min worked out at 29. Besides, the Ki at α7 nAChRs (setting [1]) was determined as 142 nM.
Taken in the same sequence, the figures for `C1=Cc2cc(-c3ccc(O[C@H]4CN5CCC4CC5)nn3)ccc2C1` [D, (R)-3-[6-(1H-Inden-5-yl)-pyridazin-3-yloxy]-1-aza-bicyclo[2.2.2]octane trifluoroacetate, reference compound] were 2090 nM, 133 and 15.7 nM.
In the case of `c1cc2c(cc1-c1ccc(O[C@H]3CN4CCC3CC4)nn1)CCC2` [E, (R)-3-(6-Indan-5-yl-pyridazin-3-yloxy)-1-aza-bicyclo[2.2.2]octane trifluoroacetate, reference compound], at hERG ion channel, the Ki is 1680 nM and the selectivity ratio at 45 min is 50. The Ki at α7 nAChRs (setting [1]) was found to be 33.9 nM.
Taken in the same sequence, the figures for `c1cc2cc(-c3ccc(O[C@H]4CN5CCC4CC5)nn3)ccc2[nH]1` [Example 9, 5-{6-[(3R)-1-Azabicyclo[2.2.2]oct-3-yloxy]pyridazin-3-yl}-1H-indole] were 10900 nM, 1620 and 6.7 nM.
On to `Cc1c[nH]c2ccc(-c3ccc(O[C@H]4CN5CCC4CC5)nn3)cc12` [Example 10, 5-{6-[(3R)-1-Azabicyclo[2.2.2]oct-3-yloxy]pyridazin-3-yl}-3-methyl-1H-indole], for which, at hERG ion channel, the affinity corresponds to a Ki of 5200 nM and the selectivity ratio at 45 min turned out to be 1680. This molecule came in with a Ki on α7 nAChRs of 3.1 nM.
Taken in the same sequence, the figures for `c1cc(-c2cnc(O[C@H]3CN4CCC3CC4)nc2)c2cc[nH]c2c1` [Example 12, 4-{2-[(3R)-1-Azabicyclo[2.2.2]oct-3-yloxy]pyrimidin-5-yl}-1H-indole] were 8830 nM, 516 and 17.1 nM.
Taken in the same sequence, the figures for `Nc1nc2ccc(-c3ccc(O[C@H]4CN5CCC4CC5)cc3)cc2s1` [Example 16, 6-{4-[(3R)-1-Azabicyclo[2.2.2]oct-3-yloxy]phenyl}-1,3-benzothiazol-2-amine] were 1510 nM, 888 and 1.7 nM.
On to `Cc1n[nH]c2ccc(-c3ccc(O[C@H]4CN5CCC4CC5)nn3)cc12` [Example 20, (R)-3-[6-(3-Methyl-1H-indazol-5-yl)-pyridazin-3-yloxy]-1-aza-bicyclo[2.2.2]octane fumarate], for which, at hERG ion channel, the Ki is 13000 nM and the selectivity ratio at 45 min stood at 797. Moreover, the Ki on α7 nAChRs (setting [1]) came out at 16.3 nM.
For `CN(C)Cc1c[nH]c2ccc(-c3ccc(O[C@H]4CN5CCC4CC5)nn3)cc12` [Example 22, (R)-{5-[6-(1-Aza-bicyclo[2.2.2]oct-3-yloxy)-pyridazin-3-yl]-1H-indol-3-ylmethyl}-dimethyl-amine bis(fumarate)], in that order: 37300 nM, 669 and 55.8 nM.
For `O=C1Cc2cc(-c3ccc(O[C@H]4C[N+]5([O-])CCC4CC5)nn3)ccc2N1` [Example 27, 5-{6-[(3R)-1-Oxy-1-Aza-bicyclo[2.2.2]oct-3-yloxy]-pyridazin-3-yl}-1,3-dihydro-indol-2-one bis(hydrogen chloride)], in that order: more than 50000 nM, more than 4000 and 13.9 nM.
Taken in the same sequence, the figures for `c1cc2cc(-c3ccc(O[C@@H]4CN5CCC4CC5)nn3)ccc2[nH]1` [Example 30, (S)-3-[6-(1H-Indol-5-yl)-pyridazin-3-yloxy]-1-aza-bicyclo[2.2.2]octane fumarate] were 12700 nM, 2960 and 4.3 nM.
On to `c1cc2cc(-c3ccc(O[C@H]4CN5CCC4CC5)nc3)ccc2[nH]1` [Example 31, (R)-3-[5-(1H-Indol-5-yl)-pyridin-2-yloxy]-1-aza-bicyclo[2.2.2]octane trifluoroacetate], for which, at hERG ion channel, affinity was put at a Ki of 2570 nM and the selectivity ratio at 45 min is 339. For the same molecule, the Ki on α7 nAChRs (setting [1]) came out at 7.6 nM.
For the molecule `c1ccc2cc(-c3ccc(O[C@H]4CN5CCC4CC5)nn3)ccc2c1` [Example A, (R)-3-(6-Naphthalen-2-yl-pyridazin-3-yloxy)-1-aza-bicyclo[2.2.2]octane trifluoroacetate, reference compound], at hERG ion channel, affinity was put at a Ki of 838 nM and the selectivity ratio at 45 min was 11. Besides, the Ki at α7 nAChRs (setting [1]) worked out at 78.9 nM.
Take `c1ccc2oc(-c3ccc(O[C@H]4CN5CCC4CC5)nn3)cc2c1` [Example C, (R)-3-[6-(Benzofuran-2-yl)-pyridazin-3-yloxy]-1-aza-bicyclo[2.2.2]octane trifluoroacetate, reference compound]: at hERG ion channel, the affinity corresponds to a Ki of 392 nM and the selectivity ratio at 45 min turned out to be 2. Besides, the Ki at α7 nAChRs (setting [1]) is 162 nM.
